Measured values as given in patent publication US5618560A, “Controlled release erodible composition” (BM Research A/S, priority 1988, dated 1997).

Assay: clinical
Parameters: species or system patients (human)
Conditions: human, in vivo, iv, 5 mg/kg, Serum half-life
Protocol: The in vivo release of theophylline from this composition was tested in six patients, 3 males and 3 females, aged 18-42 years (mean age 30 years), weighing from 63 to 85 kg (mean weight 66 kg), all of whom were diagnosed as having bronchial asthma.
The first dose was given to the patients before breakfast (i.e. in the fasting state) as two units of the composition (340 mg theophylline) together with 100 ml of liquid. […] Following the oral dose, venous blood samples were drawn at 0, 1, 2, 3, 4, 6, 8, 10, 12, 14, 16 and 24 hours. Serum samples were drawn at 0, 15 min., 30 min., 60 min., 90 min., and 2, 3, 5, 7, 9 and 11 hours after the i.v. dose. The serum portion of the blood specimen was immediately frozen at -20° C. and kept frozen until analyzed 2 weeks later. The amount of theophylline in the serum was assayed by HPLC with an accuracy of ±5%.

Cn1c(=O)c2[nH]cnc2n(C)c1=O [theophylline]
half-life: 6 h
